Consider 39 molecules from patent publication US5593994A, “Prostaglandin synthase inhibitors” (The DuPont Merck Pharmaceutical Company, priority 1994, dated 1997).

One series deals with T1, PGHS 2 (Homo sapiens, UniProt P35354).
T1 sequence (P35354 18-604): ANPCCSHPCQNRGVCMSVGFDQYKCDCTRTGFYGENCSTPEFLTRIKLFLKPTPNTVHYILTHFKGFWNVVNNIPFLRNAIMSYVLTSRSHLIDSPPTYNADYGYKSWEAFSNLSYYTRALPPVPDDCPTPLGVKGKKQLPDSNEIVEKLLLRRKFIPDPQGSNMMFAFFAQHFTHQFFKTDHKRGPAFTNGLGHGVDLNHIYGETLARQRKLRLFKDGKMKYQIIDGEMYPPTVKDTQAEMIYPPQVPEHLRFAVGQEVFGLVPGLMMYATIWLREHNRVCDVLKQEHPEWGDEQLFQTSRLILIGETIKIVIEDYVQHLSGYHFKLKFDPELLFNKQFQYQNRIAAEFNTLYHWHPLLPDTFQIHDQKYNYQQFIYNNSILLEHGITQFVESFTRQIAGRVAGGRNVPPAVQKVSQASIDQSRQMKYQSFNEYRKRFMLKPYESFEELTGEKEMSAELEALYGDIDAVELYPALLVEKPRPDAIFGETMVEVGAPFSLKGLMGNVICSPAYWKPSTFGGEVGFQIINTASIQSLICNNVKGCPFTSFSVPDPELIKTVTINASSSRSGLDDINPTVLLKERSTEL
The experiment in a line: Prostaglandin G/H Synthase Inhibition Assay (PGHS 2). The series is classed as biochemical. To be noted: Table A; 100 μM arachidonate; 2 min preincubation; read-out: IC50 (PGHS2). The protocol: Prostaglandin G/H synthase (cyclooxygenase, PGHS, Cox) activity was determined spectrophotometrically essentially as described by Kulmacz et al (reference). […] The assay was adapted to a 96 well microtiter dish format as described below. […] The reaction plate was immediately placed in a microtiter reader and readings made at 610 nm for 1.5 min at 3 sec intervals. Reaction rates were calculated from the slope of the linear portion of the absorbance versus time curve. Rates for control samples lacking added inhibitors were used to calculate the percent inhibition of each test compound.
The ratio PGHS 1 IC50 /PGHS 2 IC50 is referred to as the selectivity ratio.

For series [1], the system named is PGE2 production in human monocytes. In words: Cellular Assay: inhibition of PGE2 production in LPS-stimulated human peripheral blood monocytes. Type of series: cell-based. To be noted: Monocyte, Table B, LPS 1 μg/ml, 17.5 hours. On the procedure:
Human peripheral blood monocytes were obtained from normal donor blood by leukophoresis and isolated by elutriation. Monocytes were suspending in RPMI medium at 2×10^6 cells/ml, and plated at 200 μL/well in 96 well microtiter plates. Test compounds were added to the cells at appropriate concentration in DMSO such that the final DMSO concentration was 0.5% in the medium. Cells and compound or DMSO alone were incubated for 1 hour at 37° C. at which time cells were stimulated with 1 μg/ml LPS (Lipopolysaccharide, Salmonella typehrium, 5 mg/ml in 0.1% aqueous TEA) to induce PGHS 2 enzyme activity and prostaglandin production.

In series [2] the test system is both isoenzymes (prostaglandin G/H synthase, Cox 1 and Cox 2). To be noted: cited from earlier work.
The subject of the next series is prostaglandin synthesis. Conditions: in vivo; cited from earlier work.
A further series has as its system Cox-2. To be noted: cited from earlier work.

For the molecule `CS(=O)(=O)c1ccc(-c2ccccc2OC2CCCCC2)cc1` [Example 143], at PGHS 2, the IC50 is below 10 µM.

`CS(=O)(=O)c1ccc(-c2ccccc2-c2ccccc2)c(Cl)c1` [Example 305]: at PGHS 2, the IC50 was in the range of 50 to 300 µM.

As for `COc1ccc(-c2ccccc2-c2ccc(S(C)(=O)=O)cc2)cc1` [Example 5], the IC50 in series [1] is 0.01 to 0.05 µM; at PGHS 2 it was below 10 µM.

For the molecule `CS(=O)(=O)c1ccc(-c2ccccc2-c2cnc3ccccc3c2)cc1` [Example 53], at PGHS 2, the IC50 lay within 50 to 300 µM.

Take `CS(=O)(=O)c1ccc(-c2ccccc2-c2cccnc2)cc1` [Example 51]: at PGHS 2, the IC50 is 50 to 300 µM.

With `CS(=O)(=O)c1ccc(-c2ccccc2-c2ccc3ccccc3c2)cc1` [Example 49], the IC50 was in the range of 0.051 to 0.1 µM in series [1] and 10 to 50 µM at PGHS 2.

On to `CS(=O)(=O)c1ccc(-c2ccccc2-c2ccc(CO)cc2)cc1` [Example 43], for which, at PGHS 2, the IC50 was 50 to 300 µM.

`CS(=O)(=O)c1ccc(-c2ccccc2OCc2ccccc2)cc1` [Example 145]: at PGHS 2, the IC50 lay within 50 to 300 µM.

On to `CS(=O)(=O)c1ccc(-c2ccccc2-c2ccc(C=O)cc2)cc1` [Example 41], for which the IC50 was 0.051 to 0.1 µM in series [1] and 10 to 50 µM at PGHS 2.

For the molecule `CS(=O)(=O)c1ccc(-c2ccc(N)cc2-c2ccc(F)cc2)cc1` [Example 79], on PGHS 2, the IC50 is 50 to 300 µM.

Turning to `CS(=O)(=O)c1ccc(-c2ccccc2C2=CCCCC2)cc1` [Example 70, 1-Cyclohexene-2-(4'-methylsulfonylphenyl)benzene], on PGHS 2, the IC50 lay within 10 to 50 µM.

For the molecule `COc1cccc(-c2ccccc2-c2ccc(S(C)(=O)=O)cc2)c1` [Example 4], the IC50 lay in the range of 0.051 to 0.1 µM in series [1] and 10 to 50 µM on PGHS 2.

As for `COCc1ccc(-c2ccccc2-c2ccc(S(C)(=O)=O)cc2)cc1` [Example 42], the IC50 at PGHS 2 was below 10 µM.

Consider `CS(=O)(=O)c1ccc(-c2ccccc2-c2ccc(N)cc2)cc1` [Example 16], for which the half-maximal inhibitory concentration (IC50) on PGHS 2 is 50 to 300 µM.

Turning to `CS(=O)(=O)c1ccc(-c2cc(N)ccc2-c2ccc(F)cc2)cc1` [Example 78], the IC50 on PGHS 2 is 50 to 300 µM.

Consider `CS(=O)(=O)c1ccc(-c2ccccc2-c2cc3ccccc3s2)cc1` [Example 48], for which the figures for the IC50 (in series [1]; on PGHS 2) were 0.01 to 0.05 µM and below 10 µM, respectively.

In the case of `CS(=O)(=O)Nc1ccc([N+](=O)[O-])cc1OC1CCCCC1` [NS-398], the mode of inhibition entry in series [2] is “competitive toward both isoenzymes”. In the series on prostaglandin synthesis, the gastric lesions entry was “nor produce gastic lesions” and the gastric prostaglandin synthesis entry is given as “did not block gastric prostaglandin synthesis”. The time-dependence of inhibition result in the series with Cox-2 (Cox-2, longer exposure) is “selective time-dependence against Cox-2”. The “tightness / reversibility of binding inhibition” value in the series on Cox-2 (reversed only following enzyme denaturation and organic extraction) was “extremely tight binding inhibition”.

For `CS(=O)(=O)c1ccc(-c2ccccc2-c2ccccc2)cc1` [Example 1], the IC50 at PGHS 2 fell in the range of 10 to 50 µM.

Consider `CS(=O)(=O)c1ccc(-c2ccccc2C#Cc2ccccc2)cc1` [Example 152], for which the IC50 on PGHS 2 was below 10 µM.

Regarding `CS(=O)(=O)c1ccc(-c2ccccc2-c2ccc(F)cc2)cc1` [Example 2], the IC50 in series [1] is 0.01 to 0.05 µM.

`CS(=O)(=O)c1ccc(-c2ccccc2-c2ccc3sccc3c2)cc1` [Example 47]: the IC50 on PGHS 2 fell in the range of 10 to 50 µM.

On to `CS(=O)(=O)c1ccc(-c2ccccc2-c2ccc3ccccc3n2)cc1` [Example 52], for which, at PGHS 2, the IC50 was in the range of 50 to 300 µM.

Consider `CS(=O)(=O)c1ccc(-c2ccccc2N2CCCCC2)cc1` [Example 151, 1-[2-(4-methylsulfonylphenyl)phenyl]piperidine], for which the IC50 at PGHS 2 fell in the range of 10 to 50 µM.

In the case of `CS(=O)(=O)c1ccc(-c2cc3ccccc3cc2-c2ccccc2)cc1` [Example 401, 2-(4-methylsulfonylphenyl)-3-phenylnaphthalene], the IC50 on PGHS 2 was 10 to 50 µM.

Consider `CS(=O)(=O)c1ccc(-c2ccccc2-n2cccc2)cc1` [Example 153, 1-[2-(4'-methylsulfonylphenyl)phenyl]pyrrole], for which the IC50 at PGHS 2 fell in the range of 50 to 300 µM.

For the molecule `Cc1ccc(-c2ccccc2-c2ccc(S(C)(=O)=O)cc2)cc1` [Example 3], the half-maximal inhibitory concentration (IC50) on PGHS 2 is 10 to 50 µM.

As for `CS(=O)(=O)c1ccc(-c2ccccc2C2CCCCC2)cc1` [Example 71], the IC50 at PGHS 2 is 10 to 50 µM.

Consider `CS(=O)(=O)c1ccc(-c2cccnc2-c2ccc(F)cc2)cc1` [Example 411], for which, on PGHS 2, the 50% inhibitory concentration (IC50) was 10 to 50 µM.

As to `COc1ccc(-c2ccccc2-c2ccc(S(C)(=O)=O)cc2)cc1OC` [Example 6], on PGHS 2, the IC50 is 50 to 300 µM.

For `CS(=O)(=O)c1ccc(-c2ccc([N+](=O)[O-])cc2-c2ccc(F)cc2)cc1` [Example 81], the IC50 in series [1] lay in the range of 0.051 to 0.1 µM; at PGHS 2, 10 to 50 µM.

For the molecule `CS(=O)(=O)c1ccc(-c2cc([N+](=O)[O-])ccc2-c2ccc(F)cc2)cc1` [Example 80], at PGHS 2, the IC50 lay within 10 to 50 µM.

As to `COc1ccc(-c2ncccc2-c2ccc(S(C)(=O)=O)cc2)cc1` [Example 412], on PGHS 2, the IC50 was 10 to 50 µM.

Consider `CS(=O)(=O)c1ccc(-c2ccccc2Oc2ccccc2)cc1` [Example 144, 1-Phenoxy-2-(4'-methylsulfonylphenyl)benzene], for which the IC50 was 0.051 to 0.1 µM in series [1] and below 10 µM at PGHS 2.

Consider `CC(=O)c1ccc(-c2ccc(F)cc2)c(-c2ccc(S(C)(=O)=O)cc2)c1` [Example 93], for which the IC50 at PGHS 2 fell in the range of 10 to 50 µM.

Turning to `CN(C)c1ccc(-c2ccccc2-c2ccc(S(C)(=O)=O)cc2)cc1` [Example 20], the results for the IC50 (in series [1]; at PGHS 2) were 0.01 to 0.05 µM and 10 to 50 µM, respectively.

Consider `COc1cccc2cc(-c3ccccc3-c3ccc(S(C)(=O)=O)cc3)ccc12` [Example 50], for which, on PGHS 2, the IC50 lay within 10 to 50 µM.

Consider `NS(=O)(=O)c1ccc(-c2ccccc2-c2ccccc2)cc1` [Example 312, 2-(4-aminosulfonylphenyl)-1-biphenyl], for which, at PGHS 2, the IC50 was below 10 µM.

`CS(=O)(=O)c1ccc(-c2cc(O)ccc2-c2ccccc2)cc1` [Example 87, 3-(4'-methylsulfonylphenyl)-4-phenylphenol]: at PGHS 2, the IC50 is 50 to 300 µM.

For the molecule `CS(=O)(=O)c1ccc(-c2ccccc2Oc2ccc(F)cc2)cc1` [Example 141], on PGHS 2, the IC50 is below 10 µM.
